Where two headings read alike, the source gives them in different places.
Experiments:
[1] = system: ROSA26 like locus (RLL) in rabbit embryos; settings: for knock-in rate: 20 h, control 4.8%
Method: We first tested the effects of SCR7 and RS-1 on Cas9 mediated HDR at a ROSA26 like locus (RLL) in the rabbit genome (FIG. 6). Donor template DNAs were co-microinjected with Cas9 mRNA and sgRNA for RLL locus. After injection, the embryos were treated for 20 h in a serial concentration of SCR7: 0 μM (control), 20 μM, 40 μM, and 80 μM, or in RS-1 at 0 μM (control), 7.5 μM, and 15 μM.

[2] = system: β-casein (rbCSN2); assay: In vitro validation of sgRNAs in microinjected rabbit embryos (PCR and sequencing of blastocysts), β-casein; assay type: cell-based; settings: 100 ng/μl Cas9 mRNA and 6 ng/μl sgRNA
Method: All animal maintenance, care and use procedures were reviewed and approved by the University Committee on the Use and Care of Animals (UCUCA) of the University of Michigan. Embryos were harvested from superovulated embryo donor female rabbits as previously described. Microinjection was performed on embryos 19-21 h post insemination using a micromanipulator under the inverted microscope equipped with a differential interference contrast (DIC) device. A mixture containing 100 ng/μl Cas9 mRNA and 6 ng/μl sgRNA were used for cytoplasmic microinjection. The injected embryos were washed and cultured in vitro for 3-4 days until they reached blastocyst stage.
Blastocyst stage embryos were lysed individually and genomic DNA extracted. To get better PCR reaction, the whole genome was replicated using a REPLI-g® Mini Kit (Qiagen, Germantown, Md.) following the manufacturer's protocol with slight modification. PCR products using primer set LF1/RR1 were purified and sequenced for detection of indel mutations proximate to the sgRNA target sequence (FIG. 4). On the chromatographic curves, peaks on peaks approximate the targeting site indicate an indel event. Mutation Surveyor (Softgenetics, State College, Pa.) was used to analyze sequencing results.
In total, we performed microinjection to 102 pronuclear stage embryos with sgRNA#3 targeting β-casein (rbCSN2) (see Table 1). […]

[3] = system: beta-casein locus in rabbit embryos; assay: td-Tomato knock-in efficiency at the beta-casein locus in rabbit embryos; assay type: cell-based; settings: RS-1 7.5 μM; control 8.3%; P<0.05
Method: A mixture containing 100 ng/μl donor DNA, 100 ng/μl Cas9 mRNA and 6 ng/μl sgRNA were used for cytoplasm microinjection. Embryos were subsequently cultured to blastocyst stages, genomic DNA extracted, and subjected to PCR using primer sets described in FIG. 4. Embryos that are positive containing the desired band size for both primer sets LF1/LR1 and RF1/RR1 are considered putative knock-in.

Molecule: O=c1[nH]c(=S)[nH]c(N=Cc2ccccc2)c1N=Cc1ccccc1 [SCR7]
- overall knock-in efficiency ([1]; embryos treated 20 h with SCR7 20 μM, 40 μM, 80 μM, control 7.1%): 7.7-9.4%
- effect on overall knock-in efficiency ([1]; embryos treated 20 h with SCR7 20-80 μM vs control): no significant effects

Molecule: sgRNA#3: sgRNA targeting rabbit β-Casein intron 1, GGATATCATGTTAGAGTGCCTGG (SEQ ID NO: 1) (listed as DNA, chemistry not given here; the letters are possibly those of the target site)
- Bi-allelic mutations (%) [2]: 36%
- blastocysts with insertions or deletions at or proximate the targeted cleavage site (#mutated, %) ([2]; 56 blastocysts sequenced): 63%

Molecule: O=C(Nc1ccc(Br)cc1)c1ccc(Br)c(S(=O)(=O)NCc2ccccc2)c1 [RS-1]
- knock-in rate ([1]; RS-1 7.5 μM): 26.1%
- knock-in rate ([1]; RS-1 15 μM): 5.4%
- % KI (knock-in rate) [3]: 28.9%
